Patent publication US7820379B2, “Process for high throughput screening of CpG-based immuno-agonist/antagonist” (Coley Pharmaceutical GmbH, priority 2000, dated 2010)

Experiments:
human B cells = assay: Human B cell proliferation by 3H-thymidine uptake; type: cell-based; conditions: purified human B cells, day two; E. coli DNA 50 μg/ml, ODN 2 μM
Text: Bacterial DNA has been described as a mitogen for both murine and human B cells. Although LPS is also mitogenic for murine B cells, it is generally accepted that LPS is not a mitogen for human B cells. […] B cell proliferation was monitored at day two by ^3H-thymidine uptake.

[1] = system: plasmacytoid DC (CD123+DC); assay: Cytokine production by plasmacytoid dendritic cells (ELISA); type: cell-based, human; conditions: purified CD123+DC; ODN 2 μM, LPS 100 ng/ml
Procedure: Human dendritic cells (DC) have been claimed to be responsive to CpG-DNA. […] The converse was true for stimulation of monocyte-derived dendritic cells (MDDC) (FIG. 8 and unpublished data). […] IL-8 and TNF concentration was determined by enzyme-linked immunosorbent assay (ELISA). The CD123+DC response was DNA- and CpG-motif restricted. […] Due to this segregated response we analyzed TLR expression.

human TLR9 = target: T1, human TLR9 (Homo sapiens, UniProt Q9NR96, H530R/Q688R); assay: IL-8 production by ELISA in 293 cells transfected with human TLR9; type: cell-based; conditions: 293 cells transiently transfected with hTLR9 alone; 48 h; ODN 2 μM, LPS 100 ng/ml
T1 construct: expressed in transfected cells
T1 sequence (Q9NR96 26-1032 H530R/Q688R): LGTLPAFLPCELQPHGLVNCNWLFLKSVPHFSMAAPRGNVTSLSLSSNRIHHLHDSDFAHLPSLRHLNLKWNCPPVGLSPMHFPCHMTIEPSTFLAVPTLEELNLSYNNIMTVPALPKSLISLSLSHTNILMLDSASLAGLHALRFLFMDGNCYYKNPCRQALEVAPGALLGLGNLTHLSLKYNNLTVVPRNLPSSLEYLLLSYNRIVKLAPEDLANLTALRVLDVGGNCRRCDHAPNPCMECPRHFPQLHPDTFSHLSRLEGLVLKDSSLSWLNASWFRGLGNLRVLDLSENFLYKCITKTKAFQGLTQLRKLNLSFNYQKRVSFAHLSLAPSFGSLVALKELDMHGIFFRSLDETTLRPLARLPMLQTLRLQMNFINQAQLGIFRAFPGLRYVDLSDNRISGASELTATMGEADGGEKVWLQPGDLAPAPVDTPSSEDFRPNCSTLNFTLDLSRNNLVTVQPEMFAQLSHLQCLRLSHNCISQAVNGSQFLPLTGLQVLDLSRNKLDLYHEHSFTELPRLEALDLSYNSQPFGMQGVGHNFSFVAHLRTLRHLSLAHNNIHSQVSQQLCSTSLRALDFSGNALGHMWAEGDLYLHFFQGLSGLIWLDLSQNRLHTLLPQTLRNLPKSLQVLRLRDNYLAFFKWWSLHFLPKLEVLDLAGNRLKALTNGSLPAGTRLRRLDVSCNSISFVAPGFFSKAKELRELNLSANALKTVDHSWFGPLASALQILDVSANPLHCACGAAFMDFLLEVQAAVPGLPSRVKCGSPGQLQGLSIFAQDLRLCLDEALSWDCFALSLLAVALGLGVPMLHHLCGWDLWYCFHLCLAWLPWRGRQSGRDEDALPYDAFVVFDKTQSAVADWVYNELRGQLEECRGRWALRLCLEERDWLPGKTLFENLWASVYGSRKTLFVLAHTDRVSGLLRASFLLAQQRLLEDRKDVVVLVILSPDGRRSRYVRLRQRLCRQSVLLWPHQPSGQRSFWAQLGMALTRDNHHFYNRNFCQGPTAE
Text: Since NF-κB activation is central to the IL-1/TLR signal transduction pathway (Medzhitov R et al., Mol Cell 2:253-258 (1998); Muzio M et al., J Exp Med 187:2097-2101 (1998)), cells were transfected with hTLR9 or co-transfected with hTLR9 and a NF-κB-driven luciferase reporter construct. Human fibroblast 293 cells were transiently transfected with (FIG. 1A) hTLR9 and a six-times NF-κB-luciferase reporter plasmid (NF-κB-luc, kindly provided by Patrick Baeuerle, Munich, Germany) or (FIG. 1B) with hTLR9 alone. After stimulus with CpG-ODN (2006, 2 μM, […], SEQ ID NO:112), GpC-ODN (2006-GC, 2 μM, […], SEQ ID NO:118), LPS (100 ng/ml) or media, NF-κB activation by luciferase readout (8 h, FIG. 1A) or IL-8 production by ELISA (48 h, FIG. 1B) were monitored. Results are representative of three independent experiments. […]
Because stable TLR9 transfectants mirrored primary cell responsiveness to CpG-DNA (FIGS. 4 and 5), it was hypothesized that stable transfectants could potentially discern species-specific CpG-motifs through TLR9 receptors. […] Depicted are both NF-κB-driven luciferase and IL-8 production as readout. […] After lysis of the cells luciferase can be detected photometrically based on an enzymatic reaction by luciferase which creates photons. IL-8 production was monitored using enzyme-linked immunosorbent assay (ELISA). […]

Substance	B cell proliferation (3H-thymidine uptake) (human B cells)	cytokine production by CD123+DC [1]	IL-8 production by ELISA (human TLR9)
TCGTCGTTTTGTCGTTTTGTCGTT [ODN 2006]	proliferate	produced IFN-α, TNF, GM-CSF, and IL-8	responded
TGCTGCTTTTGTGCTTTTGTGCTT (listed as DNA, chemistry not fully specified) [ODN 2006-GC]	not		
lipopolysaccharide [LPS]		not	not
